Test results as given in patent US20110112086A1, “PYRIDINONE ANALOGS” (CYLENE PHARMACEUTICALS, INC., priority 2006, published 2011).

What was measured:
HCT-116 = HCT-116 MTS cell viability assay; format: cell-based; details: Homo sapiens, HCT-116 cells
nucleolin = target: T1, nucleolin (Homo sapiens, UniProt P19338); assay: Nucleolin/nucleic acid ligand gel retardation binding assay; design: key: A “+” represents the weakest nucleolin affinity; a “++++” represents the strongest nucleolin affinity; details: relative affinity of nucleic acid ligand for recombinant nucleolin (MBP fusion)
T1 construct: without the N-terminal acidic stretches domain
T1 sequence (P19338 284-710 limits assumed): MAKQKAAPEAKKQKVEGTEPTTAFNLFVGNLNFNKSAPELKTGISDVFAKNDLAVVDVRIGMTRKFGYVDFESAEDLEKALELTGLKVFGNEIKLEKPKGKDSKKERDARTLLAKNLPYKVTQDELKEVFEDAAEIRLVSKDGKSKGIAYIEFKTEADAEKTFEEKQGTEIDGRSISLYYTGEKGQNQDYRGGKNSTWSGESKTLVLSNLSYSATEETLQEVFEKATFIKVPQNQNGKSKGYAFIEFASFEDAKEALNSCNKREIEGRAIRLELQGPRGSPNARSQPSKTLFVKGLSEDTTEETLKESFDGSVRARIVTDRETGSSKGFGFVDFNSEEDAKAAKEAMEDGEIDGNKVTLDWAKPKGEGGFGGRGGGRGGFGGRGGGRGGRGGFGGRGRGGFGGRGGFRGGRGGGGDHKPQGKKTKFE
Description: The following assays can be used to assess the effects of compounds on interactions between nucleolin and nucleic acid ligands capable of forming quadruplex (QP) and hairpin (HP) secondary structures. Nucleic acid ligands tested were a cMyc QP DNA having nucleotide sequence 5′-[…]-3′ and a HP pre-rRNA region to which nucleolin binds, having the sequence 5′-[…]-3′. In the assays, recombinant nucleolin (˜250 nM), which has been fused to maltose binding protein, and has the sequence under accession number NM_005381 without the N-terminal acidic stretches domain, is incubated with each of the two ^32P-labeled nucleic acid ligands (10 or 250 nM). Nucleolin and the nucleic acid ligand are incubated in the presence or absence of a test compound 7 in an incubation buffer (12.5 mM Tris, pH 7.6, 60 mM KCl, 1 mM MgCl2, 0.1 mM EDTA, 1 mM DTT, 5% glycerol, 0.1 mg/ml BSA) for 30 minutes at room temperature.
The resulting complexes are separated on a 6% DNA retardation gel using 0.5×TBE with 20 mM KCl as a running buffer. The assay also can be conducted using nucleic acid ligands derived from human ribosomal DNA, whereby one can identify a compound that selectively modulates formation of a nucleolin/nucleic acid complex that depends on the conformation of the nucleic acid. Sequences of suitable nucleic acids are shown in the preceding example. […] A “+” represents the weakest nucleolin affinity and a “++++” represents the strongest nucleolin affinity. […] Using nucleic acids such as these having known conformational properties, one can identify a compound such as the compounds described herein that selectively interferes with binding of nucleolin to a particular quadruplex structure.

`O=C(NCCN1CCCC1)c1c(=O)c2ccsc2n2c1sc1ccccc12` gave an IC50 (HCT-116) of 0.04 µM.

Molecule `O=C(NCCN1CCOCC1)c1c(=O)c2ccsc2n2c1sc1ccccc12` has an IC50 (HCT-116) of 2.1 µM.

`O=C(NCc1ccccn1)c1c(=O)c2ccsc2n2c1sc1ccccc12` gave an IC50 (HCT-116) of 2.05 µM.

For `CCOC(=O)c1c(=O)c2cc(Cl)sc2n2c1sc1ccccc12`, the IC50 (HCT-116) was 10 µM.

`O=C(NCCN1CCCC1)c1c(=O)c2cc(Cl)sc2n2c1sc1ccccc12` was tested, and the IC50 (HCT-116) was 0.01 µM.

For `O=C(NCCN1CCCC1)c1c(=O)c2cc(N3CCCC3)sc2n2c1sc1ccccc12`, the IC50 (HCT-116) was 0.05 µM.

`CCOC(=O)c1c(=O)c2ccsc2n2c1sc1ccccc12` showed an IC50 (HCT-116) of 9.8 µM.

`CCOC(=O)c1c(=O)c2ccsc2n2c1[nH]c1ccccc12` gave an IC50 (HCT-116) of 10 µM.

For `Cn1c2cc3ccccc3cc2n2c3sccc3c(=O)c(C(=O)NCCN3CCCC3)c12`, the IC50 (HCT-116) was 0.3 µM.

With `CCOC(=O)c1c(=O)c2cc(Br)sc2n2c1sc1ccccc12` the IC50 (HCT-116) was 10 µM.

`CCOC(=O)c1c(=O)c2ccsc2n2c1[nH]c1cc3ccccc3cc12` showed an IC50 (HCT-116) of 4 µM.

`Cn1c2ccccc2n2c3sccc3c(=O)c(C(=O)NCCN3CCCC3)c12` gave an IC50 (HCT-116) of 3.2 µM.

For “1196NT: nucleic acid ligand derived from human ribosomal DNA: GGGTGGACGGGGGGGCCTGGTGGGG (chemistry not given here) [Compound 1196NT]”, the “Affinity for Nucleolin” value (nucleolin) was “+”.

For “6183NT: nucleic acid ligand derived from human ribosomal DNA: GGGTCGGGGGCGGTGGTGGGCCCGCGGGGG (chemistry not given here) [Compound 6183NT]”, the “Affinity for Nucleolin” value (nucleolin) was “+”.

For “7733T: nucleic acid ligand derived from human ribosomal DNA: GGGAGGGGCACGGGCCGGGGGCGGGACGGG (chemistry not given here) [Compound 7733T]”, the “Affinity for Nucleolin” value (nucleolin) was “+”.

In the case of “8511NT: nucleic acid ligand derived from human ribosomal DNA: GGGGGTGGGCGGGCGGGGCCGGGGGTGGG (chemistry not given here) [Compound 8511NT]”, the “Affinity for Nucleolin” value (nucleolin) is reported as “++++”.

In the case of “8749NT: nucleic acid ligand derived from human ribosomal DNA: GGGAGGGCGCGCGGGTCGGGG (chemistry not given here) [Compound 8749NT]”, the “Affinity for Nucleolin” value (nucleolin) is reported as “+”.

“11028NT: nucleic acid ligand derived from human ribosomal DNA: GGGGCGCGGCGGGGGGAGAAGGGTCGGGGCGGCAGGGG (chemistry not given here) [Compound 11028NT]” was tested, and the “Affinity for Nucleolin” value (nucleolin) was “+”.

B1: 8762NT: nucleic acid ligand derived from human ribosomal DNA: CGGAGGGCGCGCGGGTCGGGGCGGCGGCGGCGGCGGCGGTGGCGGCGGCGGCGGGGGCGGCGGG (nucleic acid)
DNA: CGGAGGGCGCGCGGGTCGGGGCGGCGGCGGCGGCGGCGGTGGCGGCGGCGGCGGGGGCGGCGGG
modifications: chemistry not given here
B1 was tested, and the “Affinity for Nucleolin” value (nucleolin) was “++++”.
